What all share (type): cell-based
Conditions in all cases: CreLuc reporter gene assay
In general terms: In a reporter assay the amount or activity of a reporter protein is the signal.

The target in one test is T1, hNPY2R (Homo sapiens, UniProt P49146).
T1 construct: expressed in transfected cells; host or cells: HEK-293 cells carrying a CRE-luciferase reporter gene
T1 sequence (P49146 1-381): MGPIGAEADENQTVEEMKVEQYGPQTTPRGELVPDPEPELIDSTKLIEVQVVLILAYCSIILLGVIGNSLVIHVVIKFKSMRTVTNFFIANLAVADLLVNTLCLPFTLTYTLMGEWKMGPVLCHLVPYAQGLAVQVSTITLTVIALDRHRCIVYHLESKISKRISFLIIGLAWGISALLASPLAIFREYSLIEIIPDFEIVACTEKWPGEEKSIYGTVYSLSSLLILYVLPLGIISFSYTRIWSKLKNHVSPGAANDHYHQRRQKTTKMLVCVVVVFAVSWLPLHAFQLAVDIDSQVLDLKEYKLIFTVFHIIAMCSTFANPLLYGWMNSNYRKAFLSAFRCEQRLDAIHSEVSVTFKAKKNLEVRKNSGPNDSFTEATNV
Briefly: hNPY2R CreLuc reporter gene assay in 0.5% and 100% plasma. In short, it runs like this:
(§1)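 Agonist EC50s came from 8-concentration curves over four decades, fitted by non-linear variable-slope regression of CRE-driven luciferase luminescence. Cells were exposed 4 h at 37 °C, in buffer with 0.5% human plasma or in 100% plasma; GIPR was expressed in CHO cells, GLP-1R and NPY2R in HEK cells.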

The next test deals with T2, hGIPR (Homo sapiens, UniProt P48546).
T2 construct: expressed in transfected cells; host or cells: CHO cells carrying a CRE-luciferase reporter gene
T2 sequence (P48546 22-466): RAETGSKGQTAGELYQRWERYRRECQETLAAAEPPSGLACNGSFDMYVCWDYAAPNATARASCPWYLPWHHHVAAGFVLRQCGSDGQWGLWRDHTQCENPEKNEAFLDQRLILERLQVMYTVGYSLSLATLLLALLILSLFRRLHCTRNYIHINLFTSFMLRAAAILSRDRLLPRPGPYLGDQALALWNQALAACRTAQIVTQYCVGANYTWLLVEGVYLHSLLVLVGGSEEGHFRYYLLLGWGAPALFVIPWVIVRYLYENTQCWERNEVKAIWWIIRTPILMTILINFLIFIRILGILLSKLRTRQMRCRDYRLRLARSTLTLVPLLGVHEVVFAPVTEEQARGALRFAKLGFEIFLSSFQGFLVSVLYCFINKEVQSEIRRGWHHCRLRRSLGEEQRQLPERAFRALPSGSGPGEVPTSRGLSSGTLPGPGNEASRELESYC
Briefly: hGIPR CreLuc reporter gene assay in 0.5% and 100% plasma. In short, it runs like this: as §1

A further test deals with T3, hGLP1R (Homo sapiens, UniProt P43220).
T3 construct: expressed in transfected cells; host or cells: HEK-293 cells carrying a CRE-luciferase reporter gene
Briefly: hGLP1R CreLuc reporter gene assay in 0.5% and 100% plasma. Put shortly:
as §1

[1] abbreviates: 0.5% human plasma, read-out: hNPY2R 0.5% hP.
The mark [2] stands for this setting: 0.5% human plasma, read-out: hGIPR 0.5% hP.
The mark [3] stands for this setting: 0.5% human plasma, read-out: hGLP1R 0.5% hP.
The mark [4] stands for this setting: 100% human plasma, read-out: hGLP1R 100% hP.
[5] abbreviates: 100% human plasma, read-out: hNPY2R 100% hP.
[6] abbreviates: 100% human plasma, read-out: hGIPR 100% hP.

Where two headings read alike, the source gives them in different places. Starred links: 1 amine or outer side, 2 acyl side, 3 side chain; linkers in the order of their positions; H or OH if unused. Non-standard residues stand in square brackets, D forms with d. Groups on a side chain read outwards from the residue. No end group written: not given here. *: point of attachment. C20 diacid = O=C(O)CCCCCCCCCCCCCCCCCCC(=O)*; C18 diacid = O=C(O)CCCCCCCCCCCCCCCCC(=O)*; γGlu = O=C(O)[C@H](CCC(=O)[*:2])N[*:1]; εLys = N[C@@H](CCCCN[*:1])C(=O)[*:2]; AEEA = NCCOCCOCC(=O)O; Aib = CC(C)(N)C(=O)O

T3 sequence (P43220 24-463): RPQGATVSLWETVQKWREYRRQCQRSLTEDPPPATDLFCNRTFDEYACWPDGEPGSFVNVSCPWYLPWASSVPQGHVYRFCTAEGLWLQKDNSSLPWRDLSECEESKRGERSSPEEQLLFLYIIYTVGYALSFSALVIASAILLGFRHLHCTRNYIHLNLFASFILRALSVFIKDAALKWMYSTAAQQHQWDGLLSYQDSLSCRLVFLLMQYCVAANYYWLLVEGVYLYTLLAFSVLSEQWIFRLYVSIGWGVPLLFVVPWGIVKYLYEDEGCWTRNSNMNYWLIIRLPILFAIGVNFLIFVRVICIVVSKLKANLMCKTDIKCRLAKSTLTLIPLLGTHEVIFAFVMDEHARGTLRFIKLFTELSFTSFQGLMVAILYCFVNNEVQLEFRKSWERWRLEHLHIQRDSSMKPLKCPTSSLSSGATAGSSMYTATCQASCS

Take “H-Y[Aib]EGTFTSDYSI[Aib]LELQAQ[Aib]AFVEWLIK([εLys-γGlu-γGlu-γGlu-γGlu-γGlu-γGlu-C20 diacid])GGPSSGASLRHYYNWLTRQRY-NH2 [Compound 209, Y-Aib-E-G-T-F-T-S-D-Y-S-I-Aib-L-E-L-Q-A-Q-Aib-A-F-V-E-W-L-I-K(1,3)-GGPSSGASLRHYYNWLTRQRY-NH2.C20DA-gGlu-gGlu-gGlu-gGlu-gGlu-gGlu-eLys(1,2)]”: the EC50 was 35.2 nM on hNPY2R (setting [1]), 0.81 nM at hGIPR (setting [2]), 0.48 nM on hGLP1R (setting [3]) and 16.7 nM on hGLP1R (setting [4]).

For the compound “H-Y[Aib]EGTFTSDYSI[Aib]LEKQAE[Aib]AFVQWLIK([AEEA-AEEA-γGlu-γGlu-γGlu-γGlu-C18 diacid])GGPSEGASLRHYYNWLTRQRY-NH2 [Compound 156, Y-Aib-E-G-T-F-T-S-D-Y-S-I-Aib-L-E-K-Q-A-E-Aib-A-F-V-Q-W-L-I-K(1,3)-GGPSEGASLRHYYNWLTRQRY-NH2.C18DA-gGlu-gGlu-gGlu-gGlu-OEG-OEG(1,2)]”, the EC50 on hNPY2R (setting [1]) was determined as 13.5 nM; at hNPY2R (setting [5]) it was 26.5 nM; at hGIPR (setting [2]) it was 0.16 nM; on hGLP1R (setting [3]), 0.18 nM.

As to “H-Y[Aib]EGTFTSDYSI[Aib]LEKQAQ[Aib]AFVEWLIK([AEEA-AEEA-γGlu-γGlu-γGlu-γGlu-C18 diacid])GGPSSPASLRHYYNWLTRQRY-NH2 [Compound 158, Y-Aib-E-G-T-F-T-S-D-Y-S-I-Aib-L-E-K-Q-A-Q-Aib-A-F-V-E-W-L-I-K(1,3)-GGPSSPASLRHYYNWLTRQRY-NH2.C18DA-gGlu-gGlu-gGlu-gGlu-OEG-OEG(1,2)]”, the EC50 on hNPY2R (setting [1]) is 15.8 nM; at hNPY2R (setting [5]), 39.9 nM; on hGIPR (setting [2]) it was 0.11 nM; at hGIPR (setting [6]), 0.84 nM; on hGLP1R (setting [3]), 0.09 nM.

Consider “H-Y[Aib]EGTFTSDYSI[Aib]LEKQAQ[Aib]AFVEWLIK([γGlu-γGlu-γGlu-γGlu-γGlu-C18 diacid])GGPSSPASLRHYYNWLTRQRY-NH2 [Compound 180, Y-Aib-E-G-T-F-T-S-D-Y-S-I-Aib-L-E-K-Q-A-Q-Aib-A-F-V-E-W-L-I-K(1,3)-GGPSSPASLRHYYNWLTRQRY-NH2.C18DA-gGlu-gGlu-gGlu-gGlu-gGlu(1,2)]”, for which the EC50 came to 107 nM on hNPY2R (setting [5]), 0.2 nM at hGIPR (setting [2]) and 0.1 nM on hGLP1R (setting [3]).

For “H-Y[Aib]EGTFTSDYSI[Aib]LEKQAQ[Aib]AFVQWLIK([Glu-Glu-Glu-Glu-C18 diacid])GGPSEGASLRHYYNWLTRQRY-NH2 [Compound 281, Y-Aib-E-G-T-F-T-S-D-Y-S-I-Aib-L-E-K-Q-A-Q-Aib-A-F-V-Q-W-L-I-K(1,3)-GGPSEGASLRHYYNWLTRQRY-NH2.C18DA-E-E-E-E(1,2)]”, the EC50 on hNPY2R (setting [1]) was 23 nM; at hGIPR (setting [2]), 0.28 nM; at hGIPR (setting [6]), 0.69 nM; at hGLP1R (setting [3]) it was 0.07 nM; on hGLP1R (setting [4]), 1.78 nM.

With “H-Y[Aib]EGTFTSDYSI[Aib]LEKQAQ[Aib]AFVQWLIK([AEEA-AEEA-Glu-Glu-Glu-Glu-C18 diacid])GGPESGASLRHYYNWLTRQRY-NH2 [Compound 52, Y-Aib-E-G-T-F-T-S-D-Y-S-I-Aib-L-E-K-Q-A-Q-Aib-A-F-V-Q-W-L-I-K(1,3)-GGPESGASLRHYYNWLTRQRY-NH2.C18DA-E-E-E-E-OEG-OEG(1,2)]”, the EC50 was 18.7 nM at hNPY2R (setting [1]); 0.12 nM at hGIPR (setting [2]); 0.65 nM at hGIPR (setting [6]); 0.09 nM on hGLP1R (setting [3]); 3.17 nM on hGLP1R (setting [4]).

“H-Y[Aib]EGTFTSDYSI[Aib]LEKQAQ[Aib]AFVEWLIK([εLys-γGlu-γGlu-γGlu-γGlu-γGlu-γGlu-C20 diacid])GGPSSGASLR[Aib]YYNWLTRQRY-NH2 [Compound 182, Y-Aib-E-G-T-F-T-S-D-Y-S-I-Aib-L-E-K-Q-A-Q-Aib-A-F-V-E-W-L-I-K(1,3)-G-G-P-S-S-G-A-S-L-R-Aib-Y-Y-N-W-L-T-R-Q-R-Y-NH2.C20DA-gGlu-gGlu-gGlu-gGlu-gGlu-gGlu-eLys(1,2)]”: the EC50 came out at 70.4 nM on hNPY2R (setting [1]), 0.21 nM on hGIPR (setting [2]), 1.39 nM at hGIPR (setting [6]) and 0.13 nM at hGLP1R (setting [3]).

For the compound “Y[Aib]EGTFTSDYSI[Aib]LEKQAQ[Aib]AFVQWLIK([AEEA-AEEA-γGlu-γGlu-γGlu-γGlu-C20 diacid])GGPEEPASLRHYYNWLTRQRY-NH2 [Compound 77, Y-Aib-E-G-T-F-T-S-D-Y-S-I-Aib-L-E-K-Q-A-Q-Aib-A-F-V-Q-W-L-I-K(1,3)-GGPEEPASLRHYYNWLTRQRY-NH2.C20DA-gGlu-gGlu-gGlu-gGlu-OEG-OEG(1,2)]”, the EC50 at hNPY2R (setting [1]) stood at 13.7 nM; on hNPY2R (setting [5]), 46.3 nM; at hGIPR (setting [2]) it was 0.32 nM; at hGLP1R (setting [3]), 0.24 nM.

On to `CC[C@H](C)[C@H](NC(=O)[C@H](CC(C)C)NC(=O)[C@H](Cc1c[nH]c2ccccc12)NC(=O)[C@H](CCC(N)=O)NC(=O)[C@@H](NC(=O)[C@H](Cc1ccccc1)NC(=O)[C@H](C)NC(=O)C(C)(C)NC(=O)[C@H](CCC(N)=O)NC(=O)[C@H](C)NC(=O)[C@H](CCC(N)=O)NC(=O)[C@H](CCC(=O)O)NC(=O)[C@H](CCC(=O)O)NC(=O)[C@H](CC(C)C)NC(=O)C(C)(C)NC(=O)[C@@H](NC(=O)[C@H](CO)NC(=O)[C@H](Cc1ccc(O)cc1)NC(=O)[C@H](CC(=O)O)NC(=O)[C@H](CO)NC(=O)[C@@H](NC(=O)[C@H](Cc1ccccc1)NC(=O)[C@@H](NC(=O)CNC(=O)[C@H](CCC(=O)O)NC(=O)C(C)(C)NC(=O)[C@@H](N)Cc1ccc(O)cc1)[C@@H](C)O)[C@@H](C)O)[C@@H](C)CC)C(C)C)C(=O)N[C@@H](CCCCNC(=O)[C@@H](N)CCCCNC(=O)CC[C@H](NC(=O)CC[C@H](NC(=O)CC[C@H](NC(=O)[C@H](CCC(=O)O)NC(=O)CC[C@H](NC(=O)CC[C@H](NC(=O)CCCCCCCCCCCCCCCCCCC(=O)O)C(=O)O)C(=O)O)C(=O)O)C(=O)O)C(=O)O)C(=O)NCC(=O)NCC(=O)N1CCC[C@H]1C(=O)N[C@@H](CO)C(=O)N[C@@H](CO)C(=O)NCC(=O)N[C@@H](C)C(=O)N[C@@H](CO)C(=O)N[C@@H](CC(C)C)C(=O)N[C@@H](CCCNC(=N)N)C(=O)N[C@@H](Cc1c[nH]cn1)C(=O)N[C@@H](Cc1ccc(O)cc1)C(=O)N[C@@H](Cc1ccc(O)cc1)C(=O)N[C@@H](CC(N)=O)C(=O)N[C@@H](Cc1c[nH]c2ccccc12)C(=O)N[C@@H](CC(C)C)C(=O)N[C@H](C(=O)N[C@@H](CCCNC(=N)N)C(=O)N[C@@H](CCC(N)=O)C(=O)N[C@@H](CCCNC(=N)N)C(=O)N[C@@H](Cc1ccc(O)cc1)C(N)=O)[C@@H](C)O` [Compound 30, Y-Aib-E-G-T-F-T-S-D-Y-S-I-Aib-L-E-E-Q-A-Q-Aib-A-F-V-Q-W-L-I-K(1,3)-GGPSSGASLRHYYNWLTRQRY-NH2.C20DA-gGlu-gGlu-Glu-gGlu-gGlu-gGlu-eLys(1,2)], for which the EC50 on hNPY2R (setting [1]) came to 13.3 nM; at hNPY2R (setting [5]), 56.3 nM; on hGIPR (setting [2]) it was 0.13 nM; on hGIPR (setting [6]) it was 1.06 nM; on hGLP1R (setting [3]) it was 0.08 nM.

Regarding “H-Y[Aib]EGTFTSDYSI[Aib]LEKQAQ[Aib]AFVEWLIK([εLys-γGlu-γGlu-γGlu-γGlu-γGlu-γGlu-C20 diacid])GGPSEGQSIRHYYNWLTRQRY-NH2 [Compound 134, Y-Aib-E-G-T-F-T-S-D-Y-S-I-Aib-L-E-K-Q-A-Q-Aib-A-F-V-E-W-L-I-K(1,3)-GGPSEGQSIRHYYNWLTRQRY-NH2.C20DA-gGlu-gGlu-gGlu-gGlu-gGlu-gGlu-eLys(1,2)]”, the EC50 is 10.1 nM on hNPY2R (setting [1]); 39.9 nM on hNPY2R (setting [5]); 0.09 nM at hGIPR (setting [2]); 0.83 nM on hGIPR (setting [6]); 0.1 nM on hGLP1R (setting [3]).

In the case of “H-Y[Aib]EGTFTSDYSI[Aib]LEKQAQ[Aib]AFVEWLIK([AEEA-AEEA-γGlu-γGlu-γGlu-γGlu-C20 diacid])GGPEEPASLRHYYNWLTRQRY-NH2 [Compound 206, Y-Aib-E-G-T-F-T-S-D-Y-S-I-Aib-L-E-K-Q-A-Q-Aib-A-F-V-E-W-L-I-K(1,3)-GGPEEPASLRHYYNWLTRQRY-NH2.C20DA-gGlu-gGlu-gGlu-gGlu-OEG-OEG(1,2)]”, the EC50 on hNPY2R (setting [1]) came out at 13.4 nM; at hGIPR (setting [2]), 0.25 nM; on hGLP1R (setting [4]) it was 17.2 nM.

For the origin of these results see patent publication US20240247080A1, “GLP1/GIP/NPY2 RECEPTOR TRIPLE AGONISTS” (Boehringer Ingelheim International GmbH, priority 2022, published 2024).
